From US4705799A, “Aminomethyl oxooxazolidinyl benzenes useful as antibacterial agents” (E. I. Du Pont de Nemours and Company, priority 1985, dated 1987)
Values after ≈ are worked out from the molar mass of the structure shown.

What was measured:
[1] = test system: Staphylococcus epidermidis; test: In vitro broth dilution minimal inhibitory concentration (standard microdilution method); assay type: cell-based; details: 24 h, Mueller-Hinton broth, 24-hour, read-out: Microdilution Broth MIC
Escherichia coli [2] = test: as above; assay type: cell-based; details: Escherichia coli; Mueller-Hinton broth; 24-hour; read-out: Microdilution Broth MIC
Staphylococcus aureus [3] = test: In vivo efficacy of orally administered compounds in mouse intraperitoneal infections; details: Staphylococcus aureus, po, 168 h, mouse i.p. Staphylococcus aureus infection; oral; dosed at infection and 4 h post-infection; 7 days; read-out: ED50 (50 percent effective dose)
Escherichia coli [4] = test: In vivo efficacy of compounds administered subcutaneously in mouse intraperitoneal infections; details: sc, 168 h; mouse i.p. Escherichia coli infection; subcutaneous; dosed at infection and 4 h post-infection; 7 days; read-out: ED50 (50 percent effective dose)
Protocol: (§1) Determinations of in vivo efficacy are performed by inoculating mice intraperitoneally with cultures of the infecting organism diluted to produce 90-100% mortality in control animals within twenty-four hours. The diluents used were trypticase soy broth for E. coli and 5% aqueous hog gastric mucin for Staphylococcus aureus infections. The compounds are dissolved or suspended in 0.25% aqueous Methocel® (Methocel®: Hydroxypropyl Methylcellulose E15 Premium, Dow Chemical Company) for oral administration or sterile distilled water containing 5% dimethylsulfoxide (Fisher Scientific Company, Fairlawn, N.J.) for subcutaneous administration. The mice are dosed at the time of infection and again at four hours post-infection. Mortality is recorded daily until test termination seven days post infection and the 50 percent effective dose, ED50, is calculated by the Reed-Muench method (Reed, L. G. and Muench, H., "A simple method of estimating fifty percent end points," American Journal of Hygiene, 27, 493-497 (1938).

Staphylococcus aureus [5] = test: as above; details: sc, 168 h; mouse i.p. Staphylococcus aureus infection; subcutaneous; dosed at infection and 4 h post-infection; 7 days; read-out: ED50 (50 percent effective dose)
Protocol: as §1

Escherichia coli [6] = test: In vivo efficacy of orally administered compounds in mouse intraperitoneal infections; details: 168 h; mouse i.p. Escherichia coli infection; oral; dosed at infection and 4 h post-infection; 7 days; read-out: ED50 (50 percent effective dose)

Row | MIC [1] [µg/mL] | MIC (Escherichia coli [2]) [µg/mL] | Structure (SMILES) | ED50 (Staphylococcus aureus [3]) [mg/kg] | ED50 (Escherichia coli [4]) [mg/kg] | ED50 (Staphylococcus aureus [5]) [mg/kg] | ED50 (Escherichia coli [6]) [mg/kg]
1 | 4 (≈ 13.7 µM) | > 128 | CC(=O)NCC1CN(c2ccc(C(C)=NO)cc2)C(=O)O1 (single isomer, unassigned) [Example 159, (l)-N-[3-(4-Acetylphenyl)-2-oxooxazolidin-5-ylmethyl]acetamide Oxime] | 2.6 | 71.9 | 1.1 | –
2 | 0.15 (≈ 0.483 µM) | 100 (≈ 322 µM) | CC(=O)NCC1CN(c2ccc(C(=O)CCl)cc2)C(=O)O1 (stereo not drawn) [Example 135, l-N-[3-[4-(chloroacetyl)phenyl]-2-oxo-5-oxazolidinylmethyl]acetamide] | < 4.4 | 100 | < 4.4 | 100
3 | 12.5 (≈ 32.7 µM) | 50 (≈ 131 µM) | NS(=O)(=O)c1ccc(N2CC(CNC(=O)C(Cl)Cl)OC2=O)cc1 (single isomer, unassigned) [Example 112, (l)-2,2-Dichloro-N-[3-[4-(aminosulfonyl)phenyl]-2-oxooxazolidin-5-ylmethyl]acetamide] | > 360 | 62.7 | 14.4 | > 360
4 | 4 (≈ 13.7 µM) | 128 (≈ 438 µM) | COC(=O)NCC1CN(c2ccc(C(C)=O)cc2)C(=O)O1 (stereo not shown) [Example 179] | 2 | 83.1 | 1.7 | –
5 | 12.5 (≈ 42.8 µM) | > 200 | COC(=O)NCC1CN(c2ccc(C(C)C)cc2)C(=O)O1 (stereo not shown) [Example 39] | 6.1 | > 120 | 5.5 | > 120
6 | 100 (≈ 287 µM) | > 100 | CS(=O)(=O)NCC1CN(c2ccc(S(C)(=O)=O)cc2)C(=O)O1 (single isomer, unassigned) [Example 25, (l)-N-[3-[4-(Methylsulfonyl)phenyl]-2-oxooxazolidin-5-ylmethyl]methanesulfonamide] | > 360 | > 100 | 83.6 | –
7 | 18.8 (≈ 52.1 µM) | 200 (≈ 554 µM) | CS(=O)(=O)c1ccc(N2CC(CNC(=O)CCCl)OC2=O)cc1 (stereo not shown) [Example 94] | 30.2 | 46.7 | 18.7 | 76.8
8 | 0.4 (≈ 1.45 µM) | 12.5 (≈ 45.2 µM) | CC(=O)NCC1CN(c2ccc(C(C)=O)cc2)C(=O)O1 (single isomer, unassigned) [Example 129, (l)-N-[3-(4-Acetylphenyl)-2-oxo-5-oxazolidinylmethyl)acetamide] | 0.7 | 14 | 0.5 | 13.6
9 | 2 (≈ 6.79 µM) | > 128 | CSCc1ccc(N2CC(CNC(C)=O)OC2=O)cc1 (single isomer, unassigned) [Example 163, (l)-N-[3-[4-(Methylthiomethyl)phenyl]-2-oxo-5-oxazolidinylmethyl]acetamide] | 5.4 | 33.3 | 3.2 | –
10 | 4 (≈ 15.3 µM) | > 128 | CC(=O)c1ccc(N2CC(CNC=O)OC2=O)cc1 (stereo not shown) [Example 173] | 6.9 | 79 | 4.5 | –
11 | 16 (≈ 61.9 µM) | > 128 | C#Cc1ccc(N2CC(CNC(C)=O)OC2=O)cc1 (single isomer, unassigned) [Example 182, (l)-N-[3-(4-Ethynylphenyl)-2-oxo-5-oxazolidinylmethyl]acetamide] | 16 | > 120 | 7 | –
12 | 16 (≈ 51.6 µM) | > 128 | CC(=O)NCC1CN(c2ccc(C[S+](C)[O-])cc2)C(=O)O1 (single isomer, unassigned) [Example 164, (l)-N-[3-[4-(Methylsulfinylmethyl)phenyl]-2-oxo-5-oxazolidinylmethyl]acetamide] | 14 | > 120 | 9.4 | –
13 | 6.3 (≈ 19.2 µM) | 100 (≈ 305 µM) | COC(=O)NCC1CN(c2ccc(S(C)(=O)=O)cc2)C(=O)O1 (single isomer, unassigned) [Example 26, (l)-N-[3-[4-(Methylsulfonyl)phenyl]-2-oxooxazolidin-5-ylmethyl]carbamic acid, methyl ester] | 1.7 | 40.7 | – | 56.2
14 | 6.25 (≈ 22.6 µM) | > 200 | CCCc1ccc(N2CC(CNC(C)=O)OC2=O)cc1 (stereo not shown) [Example 136] | – | 100 | < 4.4 | 100
15 | 4 (≈ 12.6 µM) | 128 (≈ 403 µM) | CC(=O)c1ccc(N2CC(CNC(=O)CN=[N+]=[N-])OC2=O)cc1 (stereo not shown) [Example 175] | 6.6 | 73.5 | 8.2 | –
16 | 12.5 (≈ 34.7 µM) | > 200 | CC(=O)NCC1CN(c2ccc(I)cc2)C(=O)O1 (single isomer, unassigned) [Example 145, (l)-N-[3-(4-Iodophenyl)-2-oxo-5-oxazolidinylmethyl]acetamide] | 50 | > 120 | 12.2 | –
17 | 3.1 (≈ 11.3 µM) | > 200 | C=C(C)c1ccc(N2CC(CNC(C)=O)OC2=O)cc1 (stereo not shown) [Example 97] | 4.9 | > 120 | 9.5 | –
18 | 200 (≈ 564 µM) | > 200 | CC(C)(C)C(=O)NCC1CN(c2ccc(S(C)(=O)=O)cc2)C(=O)O1 (stereo not shown) [Example 30] | > 120 | > 120 | 57.4 | –
19 | 1 (≈ 3.22 µM) | 32 (≈ 103 µM) | CC(=O)c1ccc(N2CC(CNC(=O)CCl)OC2=O)cc1 (stereo not shown) [Example 174] | 8.1 | > 120 | 12.2 | –
20 | 12.5 (≈ 36.5 µM) | 100 (≈ 292 µM) | COCC(=O)NCC1CN(c2ccc(S(C)(=O)=O)cc2)C(=O)O1 (stereo not shown) [Example 57] | 10.8 | 12.9 | – | 39
21 | 200 (≈ 589 µM) | 200 (≈ 589 µM) | CC(=O)NCC1CN(c2ccc(S(=O)(=O)N=[N+]=[N-])cc2)C(=O)O1 (single isomer, unassigned) [Example 114, (l)-N-[3-(4-Azidosulfonylphenyl)-2-oxooxazolidin-5-ylmethyl]acetamide] | 15.3 | 12.5 | – | 10.5
22 | 2.4 (≈ 6.3 µM) | 9.4 (≈ 24.7 µM) | CS(=O)(=O)c1ccc(N2CC(CNC(=O)C(Cl)Cl)OC2=O)cc1 (single isomer, unassigned) [Example 22, (l)-2,2-Dichloro-N-[3-[4-(methylsulfonyl)phenyl]-2-oxooxazolidin-5-ylmethyl]acetamide] | 14.2 | 11.8 | – | 71.1
23 | 4 (≈ 13.8 µM) | > 128 | CCC(=O)NCC1CN(c2ccc(C(C)=O)cc2)C(=O)O1 (single isomer, unassigned) [Example 171, (l)-N-[3-(4-Acetylphenyl)-2-oxo-5-oxazolidinylmethyl]propanamide] | 3.3 | 21.6 | 1.6 | –
24 | 12.5 | > 200 | CC(=O)NCC1CN(c2ccc(C(=O)C[S+](C)[O-])cc2)C(=O)O1 (single isomer, unassigned) [Example 165, (l)-N-[3-[4-(Methylsulfinyl)acetylphenyl]-2-oxo-5-oxazolidinylmethyl]acetamide dihydrate] | 16.4 | > 120 | 8.4 | –
25 | 4 (≈ 14.4 µM) | > 128 | CC(=O)c1ccc(N2CC(CNC(N)=O)OC2=O)cc1 (stereo not shown) [Example 177] | 3.7 | 34 | 2.8 | –
